Test results reported in PubChem BioAssay AID2060603 (Molecular Pharmacology Branch, DTP, NCI, 2025).

System: 422866-222-R5-J1-PDC spheroid viability
Test: Anticancer human tumor 422866-222-R5-J1-PDC patient-derived pancreatic adenocarcinoma cell line growth inhibition [CLK]
Conditions: spheroids with HUVEC and MSC; for IC50: curve of first compound; for viability, T/C: stronger effect = lower value
Procedure, shortened: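 Patient-derived tumor cells grown as complex spheroids with HUVEC endothelial cells and mesenchymal stem cells, treated with drug combinations. Concentrations descend in half-log steps from near clinical Cmax, or from 10 microM if Cmax unknown.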

[1] = second compound 0.0316 µM, first compound 0.0316 µM
[2] = second compound 0.0316 µM, first compound 0.1 µM
[3] = second compound 0.0316 µM, first compound 0.316 µM
[4] = second compound 0.0316 µM, first compound 1 µM
[5] = second compound 0.0316 µM, first compound 3.16 µM
[6] = second compound 0.0316 µM, first compound 10 µM
[7] = second compound 0.1 µM, first compound 0.0316 µM
[8] = second compound 0.1 µM, first compound 0.1 µM
[9] = second compound 0.1 µM, first compound 0.316 µM
[10] = second compound 0.1 µM, first compound 1 µM
[11] = second compound 0.1 µM, first compound 3.16 µM
[12] = second compound 0.1 µM, first compound 10 µM
[13] = second compound 0.316 µM, first compound 0.0316 µM
[14] = second compound 0.316 µM, first compound 0.1 µM
[15] = second compound 0.316 µM, first compound 0.316 µM
[16] = second compound 0.316 µM, first compound 1 µM
[17] = second compound 0.316 µM, first compound 3.16 µM
[18] = second compound 0.316 µM, first compound 10 µM
[19] = second compound 1 µM, first compound 0.0316 µM
[20] = second compound 1 µM, first compound 0.1 µM
[21] = second compound 1 µM, first compound 0.316 µM
[22] = second compound 1 µM, first compound 1 µM
[23] = second compound 1 µM, first compound 3.16 µM
[24] = second compound 1 µM, first compound 10 µM
[25] = second compound 3.16 µM, first compound 0.0316 µM
[26] = second compound 3.16 µM, first compound 0.1 µM
[27] = second compound 3.16 µM, first compound 0.316 µM
[28] = second compound 3.16 µM, first compound 1 µM
[29] = second compound 3.16 µM, first compound 3.16 µM
[30] = second compound 3.16 µM, first compound 10 µM
[31] = second compound 10 µM, first compound 0.0316 µM
[32] = second compound 10 µM, first compound 0.1 µM
[33] = second compound 10 µM, first compound 0.316 µM
[34] = second compound 10 µM, first compound 1 µM
[35] = second compound 10 µM, first compound 3.16 µM
[36] = second compound 10 µM, first compound 10 µM
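Also: spheroids exposed to agents for seven days before readout.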

For CC(C)CC(NC(=O)C(Cc1ccccc1)NC(=O)c1cnccn1)B(O)O (stereo unspecified) + CN1CCN(c2cc(C(=O)Nc3cc4cc(-c5cnn(C)c5)ccc4cn3)ccn2)CC1, the IC50 (second compound 0.0316 µM) was 4.7 nM, the IC50 (second compound 0.1 µM) was 5.27 nM and the IC50 (second compound 0.316 µM) was 4.39 nM. For the same compound, the IC50 (second compound 1 µM) was under 0.949 nM, the IC50 (second compound 3.16 µM) was under 0.949 nM and the IC50 (second compound 10 µM) was under 0.949 nM. The viability, T/C (second compound 0.0316 µM, first compound 0.000949 µM) was 111%, the viability, T/C (second compound 0.0316 µM, first compound 0.003 µM) was 76.2% and the viability, T/C (second compound 0.0316 µM, first compound 0.00949 µM) was 8.95%. It also gave a viability, T/C (second compound 0.0316 µM, first compound 0.03 µM) of 1.59%, a viability, T/C (second compound 0.0316 µM, first compound 0.0949 µM) of 0.94% and a viability, T/C (second compound 0.0316 µM, first compound 0.3 µM) of 0.87%. It also gave a viability, T/C (second compound 0.1 µM, first compound 0.000949 µM) of 115%, a viability, T/C (second compound 0.1 µM, first compound 0.003 µM) of 89.7% and a viability, T/C (second compound 0.1 µM, first compound 0.00949 µM) of 8.61%. For the same compound, the viability, T/C (second compound 0.1 µM, first compound 0.03 µM) was 1.61%, the viability, T/C (second compound 0.1 µM, first compound 0.0949 µM) was 0.69% and the viability, T/C (second compound 0.1 µM, first compound 0.3 µM) was 3%. It also gave a viability, T/C (second compound 0.316 µM, first compound 0.000949 µM) of 112%, a viability, T/C (second compound 0.316 µM, first compound 0.003 µM) of 72.7% and a viability, T/C (second compound 0.316 µM, first compound 0.00949 µM) of 4.02%. It also gave a viability, T/C (second compound 0.316 µM, first compound 0.03 µM) of 0.92%, a viability, T/C (second compound 0.316 µM, first compound 0.0949 µM) of 0.7% and a viability, T/C (second compound 0.316 µM, first compound 0.3 µM) of 0.68%. It also gave a viability, T/C (second compound 1 µM, first compound 0.000949 µM) of 25.4%, a viability, T/C (second compound 1 µM, first compound 0.003 µM) of 4.84% and a viability, T/C (second compound 1 µM, first compound 0.00949 µM) of 1.06%. The viability, T/C (second compound 1 µM, first compound 0.03 µM) was 0.61%, the viability, T/C (second compound 1 µM, first compound 0.0949 µM) was 0.91% and the viability, T/C (second compound 1 µM, first compound 0.3 µM) was 2.12%. The viability, T/C (second compound 3.16 µM, first compound 0.000949 µM) was 9.95%, the viability, T/C (second compound 3.16 µM, first compound 0.003 µM) was 4.26% and the viability, T/C (second compound 3.16 µM, first compound 0.00949 µM) was 1.32%. The viability, T/C (second compound 3.16 µM, first compound 0.03 µM) was 0.91%, the viability, T/C (second compound 3.16 µM, first compound 0.0949 µM) was 1.14% and the viability, T/C (second compound 3.16 µM, first compound 0.3 µM) was 1.2%. It also gave a viability, T/C (second compound 10 µM, first compound 0.000949 µM) of 1.77%, a viability, T/C (second compound 10 µM, first compound 0.003 µM) of 0.99% and a viability, T/C (second compound 10 µM, first compound 0.00949 µM) of 1.54%. It also gave a viability, T/C (second compound 10 µM, first compound 0.03 µM) of 0.44%, a viability, T/C (second compound 10 µM, first compound 0.0949 µM) of 1.53% and a viability, T/C (second compound 10 µM, first compound 0.3 µM) of 0.46%.
CC1COCCN1c1cc(C2(S(C)(=N)=O)CC2)nc(-c2ccnc3[nH]ccc23)n1 (stereo unspecified) + CN1CCN(c2cc(C(=O)Nc3cc4cc(-c5cnn(C)c5)ccc4cn3)ccn2)CC1 was tested, and the IC50 (second compound 0.0316 µM) was over 10000 nM, the IC50 (second compound 0.1 µM) was over 10000 nM and the IC50 (second compound 0.316 µM) was over 10000 nM. The IC50 (second compound 1 µM) was under 31.6 nM, the IC50 (second compound 3.16 µM) was under 31.6 nM and the IC50 (second compound 10 µM) was under 31.6 nM. It also gave a viability, T/C [1] of 112%, a viability, T/C [2] of 104% and a viability, T/C [3] of 93.6%. The viability, T/C [4] was 89.3%, the viability, T/C [5] was 56% and the viability, T/C [6] was 55.6%. It also gave a viability, T/C [7] of 115%, a viability, T/C [8] of 95.7% and a viability, T/C [9] of 113%. The viability, T/C [10] was 74.3%, the viability, T/C [11] was 60.2% and the viability, T/C [12] was 61.2%. For the same compound, the viability, T/C [13] was 95%, the viability, T/C [14] was 85.8% and the viability, T/C [15] was 79.9%. The viability, T/C [16] was 73.2%, the viability, T/C [17] was 61.2% and the viability, T/C [18] was 56.2%. For the same compound, the viability, T/C [19] was 30.9%, the viability, T/C [20] was 26.6% and the viability, T/C [21] was 27.7%. For the same compound, the viability, T/C [22] was 21.6%, the viability, T/C [23] was 23.8% and the viability, T/C [24] was 17.5%. For the same compound, the viability, T/C [25] was 10.7%, the viability, T/C [26] was 10.4% and the viability, T/C [27] was 11.6%. It also gave a viability, T/C [28] of 10.4%, a viability, T/C [29] of 10.6% and a viability, T/C [30] of 10.2%. For the same compound, the viability, T/C [31] was 2.45%, the viability, T/C [32] was 2.21% and the viability, T/C [33] was 1.54%. The viability, T/C [34] was 2.27%, the viability, T/C [35] was 4.47% and the viability, T/C [36] was 2.46%.
In the case of O=C(c1cc(Cc2n[nH]c(=O)c3ccccc23)ccc1F)N1CCN(C(=O)C2CC2)CC1 + CN1CCN(c2cc(C(=O)Nc3cc4cc(-c5cnn(C)c5)ccc4cn3)ccn2)CC1, the IC50 (second compound 0.0316 µM) is reported as over 10000 nM, the IC50 (second compound 0.1 µM) is reported as over 10000 nM and the IC50 (second compound 0.316 µM) is reported as over 10000 nM. It also gave an IC50 (second compound 1 µM) of under 31.6 nM, an IC50 (second compound 3.16 µM) of under 31.6 nM and an IC50 (second compound 10 µM) of under 31.6 nM. For the same compound, the viability, T/C [1] was 120%, the viability, T/C [2] was 112% and the viability, T/C [3] was 112%. The viability, T/C [4] was 125%, the viability, T/C [5] was 102% and the viability, T/C [6] was 84.1%. For the same compound, the viability, T/C [7] was 122%, the viability, T/C [8] was 105% and the viability, T/C [9] was 109%. For the same compound, the viability, T/C [10] was 98.7%, the viability, T/C [11] was 95% and the viability, T/C [12] was 88.4%. The viability, T/C [13] was 96.8%, the viability, T/C [14] was 82.2% and the viability, T/C [15] was 87.2%. The viability, T/C [16] was 85.5%, the viability, T/C [17] was 83.7% and the viability, T/C [18] was 74.8%. For the same compound, the viability, T/C [19] was 26.2%, the viability, T/C [20] was 24.4% and the viability, T/C [21] was 23.4%. The viability, T/C [22] was 22.4%, the viability, T/C [23] was 28.3% and the viability, T/C [24] was 25.2%. It also gave a viability, T/C [25] of 10.1%, a viability, T/C [26] of 11.2% and a viability, T/C [27] of 9.98%. The viability, T/C [28] was 8.62%, the viability, T/C [29] was 9.42% and the viability, T/C [30] was 12.3%. For the same compound, the viability, T/C [31] was 1.86%, the viability, T/C [32] was 1.82% and the viability, T/C [33] was 2.14%. The viability, T/C [34] was 2.42%, the viability, T/C [35] was 3.13% and the viability, T/C [36] was 2.42%.
